Experimental data reported in patent publication US9403823B2, “Protein kinase inhibitors” (ORIBASE PHARMA, priority 2012, dated 2016).
pEC50: −log10 of the molar value. Where two headings read alike, the source gives them in different places.

Tests used:
EGFR (ErbB1) T790M L858R = target: T1, EGFR (ErbB1) T790M L858R (Homo sapiens, UniProt P00533, L858R/T790M); assay: In vitro kinase assay (Z'-LYTE), EGFR (ErbB1) T790M L858R; assay type: biochemical; settings: read-out: % of inhibition of the kinase compared to the control
T1 construct: purchased Invitrogen
T1 sequence (P00533 25-1210 T790M/L858R): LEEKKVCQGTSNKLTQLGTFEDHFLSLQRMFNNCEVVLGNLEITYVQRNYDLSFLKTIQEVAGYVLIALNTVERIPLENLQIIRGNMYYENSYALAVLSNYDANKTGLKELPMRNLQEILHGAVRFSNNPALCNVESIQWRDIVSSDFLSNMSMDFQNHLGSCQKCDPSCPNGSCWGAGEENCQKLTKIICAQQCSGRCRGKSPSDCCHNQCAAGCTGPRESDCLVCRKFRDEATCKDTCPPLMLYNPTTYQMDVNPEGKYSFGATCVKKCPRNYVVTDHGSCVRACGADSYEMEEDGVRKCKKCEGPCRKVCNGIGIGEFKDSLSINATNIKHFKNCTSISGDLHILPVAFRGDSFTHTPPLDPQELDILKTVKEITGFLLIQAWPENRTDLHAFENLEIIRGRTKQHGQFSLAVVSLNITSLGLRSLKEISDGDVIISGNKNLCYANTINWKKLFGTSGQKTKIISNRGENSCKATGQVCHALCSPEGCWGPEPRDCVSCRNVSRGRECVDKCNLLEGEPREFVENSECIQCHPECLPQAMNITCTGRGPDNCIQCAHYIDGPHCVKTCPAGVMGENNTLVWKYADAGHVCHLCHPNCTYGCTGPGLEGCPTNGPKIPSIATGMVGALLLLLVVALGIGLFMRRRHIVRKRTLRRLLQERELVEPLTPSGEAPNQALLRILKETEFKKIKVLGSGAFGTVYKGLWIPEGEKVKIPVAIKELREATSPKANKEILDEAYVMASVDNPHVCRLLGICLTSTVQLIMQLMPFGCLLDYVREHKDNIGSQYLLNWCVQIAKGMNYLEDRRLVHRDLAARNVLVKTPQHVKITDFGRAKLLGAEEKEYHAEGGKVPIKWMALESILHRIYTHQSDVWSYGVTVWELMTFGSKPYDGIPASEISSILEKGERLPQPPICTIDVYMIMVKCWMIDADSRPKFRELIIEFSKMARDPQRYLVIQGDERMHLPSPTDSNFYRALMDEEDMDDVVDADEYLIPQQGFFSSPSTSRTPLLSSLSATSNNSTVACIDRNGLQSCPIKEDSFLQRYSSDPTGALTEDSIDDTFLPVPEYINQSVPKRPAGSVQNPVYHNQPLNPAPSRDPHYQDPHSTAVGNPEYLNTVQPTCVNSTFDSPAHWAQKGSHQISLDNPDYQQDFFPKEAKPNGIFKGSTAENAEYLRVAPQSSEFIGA
Experimental: 1) In Vitro Kinase Assays (Table 10 to Table 21)
The inhibitory activity of the compounds on several kinases including BRAF, EGFR (ErbB1), EGFR (ErbB1) T790M L858R, FGFR2, KDR (VEGFR2), PDGFRA (PDGFR alpha), SRC and other was evaluated by Invitrogen using the Z′-LYTE® technology. Briefly, the Z′-LYTE® biochemical assay employs a fluorescence-based, coupled-enzyme format and is based on the differential sensitivity of phosphorylated and non-phosphorylated peptides to proteolytic cleavage. The peptide substrate is labeled with two fluorophores—one at each end—that make up a FRET pair. A ratiometric method, which calculates the ratio (the Emission Ratio) of donor emission to acceptor emission after excitation of the donor fluorophore at 400 nm, is used to quantitate reaction progress.
The compounds are screened in 1% DMSO (final) in the well. For 10 point titrations, 3-fold serial dilutions are conducted from the starting concentration. All Peptide/Kinase Mixtures are diluted to a 2× working concentration in the appropriate Kinase Buffer. All ATP Solutions are diluted to a 4× working concentration in Kinase Buffer (50 mM HEPES pH 7.5, 0.01% BRIJ-35, 10 mM MgCl2, 1 mM EGTA). ATP Km apparent is previously determined using a Z′-LYTE® assay.
Each compound was incubated at a concentration of 100 nM (excepted to test the activity against ABL and ABL T315I for which the compounds were incubated at a concentration of 10 μM) and the tables 10 to 21 summarize the results obtained showing the inhibitory power of a compound.

FGFR2 = target: T2, FGFR2 (Homo sapiens, UniProt P21802); assay: In vitro kinase assay (Z'-LYTE), FGFR2; assay type: biochemical; settings: read-out: % of inhibition of the kinase compared to the control
T2 construct: purchased Invitrogen
T2 sequence (P21802 22-821): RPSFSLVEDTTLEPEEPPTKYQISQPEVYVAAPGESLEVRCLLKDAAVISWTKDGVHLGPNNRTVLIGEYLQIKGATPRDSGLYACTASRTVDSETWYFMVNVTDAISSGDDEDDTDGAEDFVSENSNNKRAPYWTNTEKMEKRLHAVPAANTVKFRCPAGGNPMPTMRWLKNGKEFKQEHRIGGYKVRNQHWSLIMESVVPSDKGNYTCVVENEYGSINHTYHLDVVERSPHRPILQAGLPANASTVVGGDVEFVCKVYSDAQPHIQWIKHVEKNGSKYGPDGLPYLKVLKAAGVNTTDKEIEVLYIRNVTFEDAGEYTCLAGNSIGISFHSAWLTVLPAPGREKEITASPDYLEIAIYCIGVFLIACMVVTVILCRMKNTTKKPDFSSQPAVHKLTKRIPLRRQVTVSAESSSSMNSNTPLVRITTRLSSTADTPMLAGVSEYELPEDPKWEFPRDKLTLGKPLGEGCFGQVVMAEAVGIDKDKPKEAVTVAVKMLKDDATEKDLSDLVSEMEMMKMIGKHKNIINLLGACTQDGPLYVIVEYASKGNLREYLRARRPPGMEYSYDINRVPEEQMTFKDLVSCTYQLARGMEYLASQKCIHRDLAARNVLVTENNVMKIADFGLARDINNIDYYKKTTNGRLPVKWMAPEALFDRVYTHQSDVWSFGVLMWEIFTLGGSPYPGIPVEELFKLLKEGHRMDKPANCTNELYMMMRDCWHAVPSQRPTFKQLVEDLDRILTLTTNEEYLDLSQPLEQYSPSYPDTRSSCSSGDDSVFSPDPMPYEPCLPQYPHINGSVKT
Summary of the method: (§1)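 Z'-LYTE, HEPES pH 7.5/MgCl2/EGTA/BRIJ-35 buffer, 1% DMSO; cpd 100 nM (ABL, ABL T315I: 10 μM); ratiometric FRET read-out after protease development; % inhibition.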

A549 cell line = assay: In vitro cell proliferation assay (MTT), A549; assay type: cell-based; settings: Homo sapiens, read-out: EC50, anti-proliferative activity
Experimental: (§2) 2) In Vitro Cell Proliferation Assays (Table 22 to Table 35)
(§3) Cancer cell lines (5×10^3 cells per well) or HUVEC (1×10^4 cells per well) or HRMEC (1×10^4 cells per well) were distributed in 96-well plates and incubating in duplicate with escalating concentrations (10 nM to 3 μM) of compounds for 72 hr. Cell proliferation was measured using MTT (3[4,5-dimethylthiazol-2-yl]-2,5-diphenyltetrazolium bromide).

HepG2 cell line = assay: In vitro cell proliferation assay (MTT), HepG2; assay type: cell-based; settings: Homo sapiens, read-out: EC50, anti-proliferative activity
Summary of the method: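 MTT readout of proliferation after 72 hr compound exposure; tumour lines 5×10^3 cells/well, HRMEC 1×10^4 cells/well; dose range 10 nM–3 μM, duplicates.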

HUVEC = assay: In vitro cell proliferation assay (MTT), HUVEC; assay type: cell-based; settings: Homo sapiens, read-out: EC50, anti-proliferative activity
Summary of the method: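 Anti-proliferative effects on human umbilical vein endothelial cells were assessed by an MTT (3[4,5-dimethylthiazol-2-yl]-2,5-diphenyltetrazolium bromide) readout. Cells (1×10^4 cells per well) in 96-well plates were incubated in duplicate for 72 hr with escalating test compound concentrations spanning 10 nM to 3 μM.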

SRC = target: T3, SRC (Homo sapiens, UniProt P12931); assay: In vitro kinase assay (Z'-LYTE), SRC; assay type: biochemical; settings: read-out: % of inhibition of the kinase compared to the control
T3 construct: purchased Invitrogen
T3 sequence (P12931 whole entry): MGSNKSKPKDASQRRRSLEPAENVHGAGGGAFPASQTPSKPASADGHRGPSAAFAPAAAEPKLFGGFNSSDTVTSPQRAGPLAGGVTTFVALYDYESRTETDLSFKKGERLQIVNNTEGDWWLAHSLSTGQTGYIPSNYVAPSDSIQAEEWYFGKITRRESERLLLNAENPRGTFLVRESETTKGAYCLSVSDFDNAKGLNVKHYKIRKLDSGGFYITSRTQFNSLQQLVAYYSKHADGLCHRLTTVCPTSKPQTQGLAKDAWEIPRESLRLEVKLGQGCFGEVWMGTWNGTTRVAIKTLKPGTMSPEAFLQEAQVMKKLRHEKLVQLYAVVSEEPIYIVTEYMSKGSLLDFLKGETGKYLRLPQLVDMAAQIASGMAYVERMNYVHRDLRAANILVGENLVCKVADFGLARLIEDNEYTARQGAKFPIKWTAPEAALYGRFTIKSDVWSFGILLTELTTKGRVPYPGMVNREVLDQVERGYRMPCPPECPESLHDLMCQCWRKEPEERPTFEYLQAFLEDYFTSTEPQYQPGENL
Summary of the method: as §1

HuCCT1 cell line = assay: In vitro cell proliferation assay (MTT), HuCCT1; assay type: cell-based; settings: Homo sapiens, HuCCT-1; HuCCT1, 72 hr, MTT; read-out: EC50, anti-proliferative activity
Experimental: as §2, §3

HuH7 cell line = assay: In vitro cell proliferation assay (MTT), HuH7; assay type: cell-based; settings: Homo sapiens, read-out: EC50, anti-proliferative activity
Experimental: as §2, §3

EGFR (ErbB1) = target: T4, EGFR (ErbB1) (Homo sapiens, UniProt P00533); assay: In vitro kinase assay (Z'-LYTE), EGFR (ErbB1); assay type: biochemical; settings: read-out: % of inhibition of the kinase compared to the control
T4 construct: purchased Invitrogen
Summary of the method: as §1

HuH6 Clone 5 cell line = assay: In vitro cell proliferation assay (MTT), HuH6 Clone 5; assay type: cell-based; settings: read-out: EC50, anti-proliferative activity
Experimental: as §2, §3

PDGFRA (PDGFR alpha) = target: T5, PDGFRA (PDGFR alpha) (Homo sapiens, UniProt P16234); assay: In vitro kinase assay (Z'-LYTE), PDGFRA; assay type: biochemical; settings: read-out: % of inhibition of the kinase compared to the control
T5 construct: purchased Invitrogen
T5 sequence (P16234 24-1089): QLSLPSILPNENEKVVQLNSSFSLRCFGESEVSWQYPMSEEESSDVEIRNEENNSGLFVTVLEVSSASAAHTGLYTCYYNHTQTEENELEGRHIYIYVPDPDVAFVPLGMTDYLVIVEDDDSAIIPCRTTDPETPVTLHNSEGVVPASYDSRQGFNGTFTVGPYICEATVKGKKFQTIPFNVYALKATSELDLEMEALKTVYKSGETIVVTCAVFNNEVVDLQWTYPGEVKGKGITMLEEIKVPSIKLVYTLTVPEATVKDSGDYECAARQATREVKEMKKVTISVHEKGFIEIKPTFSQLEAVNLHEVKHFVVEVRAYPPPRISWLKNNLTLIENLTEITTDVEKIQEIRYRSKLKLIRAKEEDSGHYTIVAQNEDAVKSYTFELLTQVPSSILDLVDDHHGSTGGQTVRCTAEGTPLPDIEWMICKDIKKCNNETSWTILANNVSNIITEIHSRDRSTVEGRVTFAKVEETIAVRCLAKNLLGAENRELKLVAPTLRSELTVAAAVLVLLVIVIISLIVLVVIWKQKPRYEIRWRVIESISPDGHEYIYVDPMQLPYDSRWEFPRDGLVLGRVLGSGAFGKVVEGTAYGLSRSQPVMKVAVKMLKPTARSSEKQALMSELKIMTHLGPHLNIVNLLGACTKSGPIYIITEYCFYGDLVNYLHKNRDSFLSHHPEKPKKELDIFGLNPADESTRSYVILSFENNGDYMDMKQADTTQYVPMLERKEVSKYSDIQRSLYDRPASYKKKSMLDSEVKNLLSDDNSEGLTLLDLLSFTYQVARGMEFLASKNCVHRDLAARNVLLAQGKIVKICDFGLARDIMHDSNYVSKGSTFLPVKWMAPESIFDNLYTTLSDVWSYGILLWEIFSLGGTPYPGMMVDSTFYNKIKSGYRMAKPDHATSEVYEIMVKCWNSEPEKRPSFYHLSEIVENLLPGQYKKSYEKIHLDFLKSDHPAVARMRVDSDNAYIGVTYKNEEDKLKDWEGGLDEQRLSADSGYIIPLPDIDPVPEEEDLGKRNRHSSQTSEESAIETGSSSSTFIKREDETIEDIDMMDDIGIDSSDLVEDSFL
Summary of the method: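 Inhibition read as emission ratio (donor/acceptor, 400 nm excitation) of a FRET-labelled peptide, phosphorylation protecting it from proteolytic cleavage. Compounds tested once at 100 nM for VEGFR1 and PDGFRA, at 10 μM for ABL and ABL T315I, 1% DMSO final. ATP at previously determined apparent Km.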

KDR (VEGFR2) = target: T6, KDR (VEGFR2) (Homo sapiens, UniProt P35968); assay: In vitro kinase assay (Z'-LYTE), KDR (VEGFR2); assay type: biochemical; settings: read-out: % of inhibition of the kinase compared to the control
T6 construct: purchased Invitrogen
T6 sequence (P35968 20-1356): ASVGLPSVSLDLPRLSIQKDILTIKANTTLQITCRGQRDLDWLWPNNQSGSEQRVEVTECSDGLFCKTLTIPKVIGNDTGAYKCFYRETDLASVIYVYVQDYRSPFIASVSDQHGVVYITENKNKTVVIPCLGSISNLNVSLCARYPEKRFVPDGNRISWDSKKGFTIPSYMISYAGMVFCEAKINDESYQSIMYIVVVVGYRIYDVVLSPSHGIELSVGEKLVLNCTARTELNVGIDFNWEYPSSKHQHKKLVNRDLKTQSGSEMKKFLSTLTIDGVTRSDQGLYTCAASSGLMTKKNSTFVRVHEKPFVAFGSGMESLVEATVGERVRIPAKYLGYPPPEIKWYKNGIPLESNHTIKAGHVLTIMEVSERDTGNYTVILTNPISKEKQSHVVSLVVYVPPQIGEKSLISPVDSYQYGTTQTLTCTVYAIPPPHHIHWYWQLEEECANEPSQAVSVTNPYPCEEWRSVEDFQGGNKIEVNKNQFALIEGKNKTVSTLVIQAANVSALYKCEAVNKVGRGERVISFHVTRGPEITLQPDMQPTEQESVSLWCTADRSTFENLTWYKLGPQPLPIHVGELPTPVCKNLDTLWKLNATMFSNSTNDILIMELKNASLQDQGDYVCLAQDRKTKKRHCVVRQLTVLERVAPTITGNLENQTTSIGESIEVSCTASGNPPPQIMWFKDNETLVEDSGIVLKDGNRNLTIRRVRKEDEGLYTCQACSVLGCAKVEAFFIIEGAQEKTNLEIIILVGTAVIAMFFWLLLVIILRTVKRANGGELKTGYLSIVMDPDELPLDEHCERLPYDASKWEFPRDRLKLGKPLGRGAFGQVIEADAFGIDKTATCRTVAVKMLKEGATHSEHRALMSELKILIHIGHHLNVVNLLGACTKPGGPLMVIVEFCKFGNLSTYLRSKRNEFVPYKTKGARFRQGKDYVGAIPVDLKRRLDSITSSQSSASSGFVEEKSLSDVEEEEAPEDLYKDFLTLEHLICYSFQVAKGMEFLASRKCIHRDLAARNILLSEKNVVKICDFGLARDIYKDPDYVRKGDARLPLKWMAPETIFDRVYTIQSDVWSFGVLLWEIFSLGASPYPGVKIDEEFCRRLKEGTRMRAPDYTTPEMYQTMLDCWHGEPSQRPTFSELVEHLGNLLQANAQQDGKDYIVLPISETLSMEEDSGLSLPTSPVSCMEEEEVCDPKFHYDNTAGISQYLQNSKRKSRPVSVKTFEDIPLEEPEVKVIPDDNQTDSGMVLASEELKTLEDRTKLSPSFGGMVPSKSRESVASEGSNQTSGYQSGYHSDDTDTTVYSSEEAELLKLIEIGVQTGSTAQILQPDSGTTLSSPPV
Summary of the method: as §1

BRAF = target: T7, BRAF (Homo sapiens, UniProt P15056); assay: In vitro kinase assay (Z'-LYTE), BRAF; assay type: biochemical; settings: read-out: % of inhibition of the kinase compared to the control
T7 construct: purchased Invitrogen
Summary of the method: as §1

H1975 cell line = assay: In vitro cell proliferation assay (MTT), H1975; assay type: cell-based; settings: Homo sapiens, read-out: EC50, anti-proliferative activity
Experimental: as §2, §3

HT29 cell line = assay: In vitro cell proliferation assay (MTT), HT29; assay type: cell-based; settings: Homo sapiens, HT-29; HT29, 72 hr, MTT; read-out: EC50, anti-proliferative activity
Experimental: as §2, §3

MDA-MB-231 cell line = assay: In vitro cell proliferation assay (MTT), MDA-MB-231; assay type: cell-based; settings: Homo sapiens, MDA-MB-231, 72 h; read-out: EC50, anti-proliferative activity
Experimental: as §2, §3

HeLa cell line = assay: In vitro cell proliferation assay (MTT), HeLa; assay type: cell-based; settings: Homo sapiens, 72 hr, MTT, read-out: EC50, anti-proliferative activity
Experimental: as §2, §3

HRMEC cells = assay: In vitro cell proliferation assay (MTT), HRMEC; assay type: cell-based; settings: 72 h, read-out: EC50, anti-proliferative activity
Experimental: as §2, §3

[1] = HUH-6-clone5, HuH6 Clone 5, 72 hr, MTT

CNC(=O)c1cc2cc(NCc3cc(NC(=O)c4ccc(CN5CCN(C)CC5)cc4)ccc3C)cnc2[nH]1 [OR0753, 5-{2-Methyl-5-[4-(4-methyl-piperazin-1-ylmethyl)-benzoylamino]-benzylamino}-1H-pyrrolo[2,3-b]pyridine-2-carboxylic acid methylamide] gave an inhibition at 0.1 µM (EGFR (ErbB1) T790M L858R) of at least 50%, an inhibition at 0.1 µM (FGFR2) of under 50% and a pEC50 (A549 cell line; A549, 72 hr, MTT) of at most 6.00. It also gave a pEC50 (HepG2 cell line; HepG2, 72 hr, MTT) of at most 6.00, a pEC50 (HUVEC; 72 hr, MTT) of at most 6.00 and an inhibition at 0.1 µM (SRC) of at least 50%. The pEC50 (HuCCT1 cell line) was at most 6.00, the pEC50 (HuH7 cell line; Huh-7, HuH7, 72 hr, MTT) was at most 6.00 and the inhibition at 0.1 µM (EGFR (ErbB1)) was at least 50%. For the same compound, the pEC50 (HuH6 Clone 5 cell line; HUH-6-clone5, 72 h) was 6.00 to 7.00, the inhibition at 0.1 µM (PDGFRA (PDGFR alpha)) was at least 50% and the inhibition at 0.1 µM (KDR (VEGFR2)) was at least 50%. For the same compound, the inhibition at 0.1 µM (BRAF) was at least 50%.
In the case of CC(=O)c1cc2cc(NC(=O)c3cc(NC(=O)c4ccc(CN5CCN(C)CC5)c(C(F)(F)F)c4)ccc3C)cnc2[nH]1 [OR0781, N-(2-Acetyl-1H-pyrrolo[2,3-b]pyridin-5-yl)-2-methyl-5-[4-(4-methyl-piperazin-1-ylmethyl)-3-trifluoromethyl-benzoylamino]-benzamide], the inhibition at 0.1 µM (EGFR (ErbB1) T790M L858R) was at least 50%, the inhibition at 0.1 µM (FGFR2) was at least 50% and the pEC50 (A549 cell line; A549, 72 hr, MTT) was at most 6.00. The pEC50 (HepG2 cell line; HepG2, 72 hr, MTT) was at most 6.00, the pEC50 (HUVEC; 72 h) was 6.00 to 7.00 and the pEC50 (H1975 cell line; NCI-H1975, 72 h) was 6.00 to 7.00. The inhibition at 0.1 µM (SRC) was at least 50%, the pEC50 (HT29 cell line) was at most 6.00 and the pEC50 (HuCCT1 cell line) was at most 6.00. It also gave a pEC50 (HuH7 cell line; Huh-7, 72 h) of 6.00 to 7.00, an inhibition at 0.1 µM (EGFR (ErbB1)) of at least 50% and a pEC50 (HuH6 Clone 5 cell line; [1]) of at most 6.00. For the same compound, the inhibition at 0.1 µM (PDGFRA (PDGFR alpha)) was at least 50%, the inhibition at 0.1 µM (KDR (VEGFR2)) was at least 50% and the inhibition at 0.1 µM (BRAF) was at least 50%.
In the case of CC(=O)c1cc2cc(NC(=O)c3cc(NC(=O)c4ccc(CN5CCC(N(C)C)C5)c(C(F)(F)F)c4)ccc3C)cnc2[nH]1 (centres unmarked) [OR0782, N-(2-Acetyl-1H-pyrrolo[2,3-b]pyridin-5-yl)-2-methyl-5-[4-(3-dimethylamino-pyrrolidin-1-ylmethyl)-3-trifluoromethyl-benzoylamino]-benzamide], the inhibition at 0.1 µM (EGFR (ErbB1) T790M L858R) was under 50%, the inhibition at 0.1 µM (FGFR2) was at least 50% and the pEC50 (A549 cell line; A549, 72 hr, MTT) was at most 6.00. It also gave a pEC50 (HepG2 cell line; HepG2, 72 hr, MTT) of at most 6.00, a pEC50 (HUVEC; 72 hr, MTT) of at most 6.00 and a pEC50 (H1975 cell line; NCI-H1975, H1975, 72 hr, MTT) of at most 6.00. For the same compound, the inhibition at 0.1 µM (SRC) was at least 50%, the pEC50 (HT29 cell line) was at most 6.00 and the pEC50 (HuCCT1 cell line) was at most 6.00. The pEC50 (HuH7 cell line; Huh-7, HuH7, 72 hr, MTT) was at most 6.00, the inhibition at 0.1 µM (EGFR (ErbB1)) was at least 50% and the pEC50 (HuH6 Clone 5 cell line; [1]) was at most 6.00. The inhibition at 0.1 µM (PDGFRA (PDGFR alpha)) was at least 50%, the inhibition at 0.1 µM (KDR (VEGFR2)) was at least 50% and the inhibition at 0.1 µM (BRAF) was under 50%.
With CNC(=O)c1cc2cc(NCc3cc(NC(=O)c4ccc(CN5CC[C@H](N(C)C)C5)c(C(F)(F)F)c4)ccc3C)cnc2[nH]1 [OR0813, 5-{5-[4-((S)-3-Dimethylamino-pyrrolidin-1-ylmethyl)-3-trifluoromethyl-benzoylamino]-2-methyl-benzylamino}-1H-pyrrolo-[2,3-b]pyridine-2-carboxylic acid methylamide] the inhibition at 0.1 µM (FGFR2) was at least 50%, the pEC50 (A549 cell line; A549, 72 h) was at least 7.00 and the pEC50 (HepG2 cell line; HepG2, 72 h) was at least 7.00. It also gave a pEC50 (MDA-MB-231 cell line) of 6.00 to 7.00, a pEC50 (HUVEC; 72 h) of at least 7.00 and a pEC50 (HeLa cell line) of at most 6.00. The pEC50 (HRMEC cells) was 6.00 to 7.00, the inhibition at 0.1 µM (EGFR (ErbB1)) was at least 50% and the inhibition at 0.1 µM (KDR (VEGFR2)) was at least 50%. For the same compound, the inhibition at 0.1 µM (BRAF) was at least 50%.
